Data as given in patent publication US12281080B2, “Quinoline-based compounds and methods of inhibiting CDK8/19” (University of South Carolina, priority 2018, dated 2025).

Legend:
BRK (PTK6) = BRK (PTK6) (Homo sapiens (Human), UniProt Q13882); test: KINOMEscan scanMAX; type: binding; conditions: 2000 nM; read-out: Percent Control
IGF1R = IGF1R (Homo sapiens (Human), UniProt P08069); test: KINOMEscan scanMAX; type: binding; conditions: 2000 nM; read-out: Percent Control
PIK4CB (PI4KB) = PIK4CB (PI4KB) (Homo sapiens (Human), UniProt Q9UBF8); test: KINOMEscan scanMAX; type: binding; conditions: 2000 nM; read-out: Percent Control
DDR2 = DDR2 (Homo sapiens (Human), UniProt Q16832); test: KINOMEscan scanMAX; type: binding; conditions: 2000 nM; read-out: Percent Control
Chain of DDR2 (Q16832 22-855): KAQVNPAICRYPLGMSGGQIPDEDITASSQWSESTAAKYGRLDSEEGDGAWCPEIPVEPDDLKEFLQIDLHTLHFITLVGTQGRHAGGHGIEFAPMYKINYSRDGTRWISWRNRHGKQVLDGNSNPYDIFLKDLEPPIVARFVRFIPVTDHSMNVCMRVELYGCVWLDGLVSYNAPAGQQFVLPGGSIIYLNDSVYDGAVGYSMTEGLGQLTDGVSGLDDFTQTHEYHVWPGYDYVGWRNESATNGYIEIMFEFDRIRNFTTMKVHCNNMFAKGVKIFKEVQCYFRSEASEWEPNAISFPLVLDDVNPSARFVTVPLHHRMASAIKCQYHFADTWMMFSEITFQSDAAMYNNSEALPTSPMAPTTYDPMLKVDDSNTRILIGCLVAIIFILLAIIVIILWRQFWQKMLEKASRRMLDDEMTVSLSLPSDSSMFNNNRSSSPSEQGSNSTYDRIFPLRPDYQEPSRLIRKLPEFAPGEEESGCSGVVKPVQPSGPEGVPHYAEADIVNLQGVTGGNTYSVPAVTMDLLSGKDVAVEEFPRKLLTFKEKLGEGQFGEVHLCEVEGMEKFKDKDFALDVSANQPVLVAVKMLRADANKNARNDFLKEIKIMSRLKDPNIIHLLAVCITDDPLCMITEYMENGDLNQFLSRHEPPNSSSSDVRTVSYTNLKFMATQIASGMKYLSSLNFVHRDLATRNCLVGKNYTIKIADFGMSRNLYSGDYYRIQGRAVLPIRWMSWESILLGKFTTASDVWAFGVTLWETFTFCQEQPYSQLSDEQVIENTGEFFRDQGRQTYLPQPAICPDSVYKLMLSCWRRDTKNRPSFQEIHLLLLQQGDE

ABL1-phosphorylated = ABL1-phosphorylated (Homo sapiens (Human), UniProt P00519); test: KINOMEscan scanMAX; type: binding; conditions: 2000 nM; read-out: Percent Control
Chain of ABL1-phosphorylated (P00519 whole entry): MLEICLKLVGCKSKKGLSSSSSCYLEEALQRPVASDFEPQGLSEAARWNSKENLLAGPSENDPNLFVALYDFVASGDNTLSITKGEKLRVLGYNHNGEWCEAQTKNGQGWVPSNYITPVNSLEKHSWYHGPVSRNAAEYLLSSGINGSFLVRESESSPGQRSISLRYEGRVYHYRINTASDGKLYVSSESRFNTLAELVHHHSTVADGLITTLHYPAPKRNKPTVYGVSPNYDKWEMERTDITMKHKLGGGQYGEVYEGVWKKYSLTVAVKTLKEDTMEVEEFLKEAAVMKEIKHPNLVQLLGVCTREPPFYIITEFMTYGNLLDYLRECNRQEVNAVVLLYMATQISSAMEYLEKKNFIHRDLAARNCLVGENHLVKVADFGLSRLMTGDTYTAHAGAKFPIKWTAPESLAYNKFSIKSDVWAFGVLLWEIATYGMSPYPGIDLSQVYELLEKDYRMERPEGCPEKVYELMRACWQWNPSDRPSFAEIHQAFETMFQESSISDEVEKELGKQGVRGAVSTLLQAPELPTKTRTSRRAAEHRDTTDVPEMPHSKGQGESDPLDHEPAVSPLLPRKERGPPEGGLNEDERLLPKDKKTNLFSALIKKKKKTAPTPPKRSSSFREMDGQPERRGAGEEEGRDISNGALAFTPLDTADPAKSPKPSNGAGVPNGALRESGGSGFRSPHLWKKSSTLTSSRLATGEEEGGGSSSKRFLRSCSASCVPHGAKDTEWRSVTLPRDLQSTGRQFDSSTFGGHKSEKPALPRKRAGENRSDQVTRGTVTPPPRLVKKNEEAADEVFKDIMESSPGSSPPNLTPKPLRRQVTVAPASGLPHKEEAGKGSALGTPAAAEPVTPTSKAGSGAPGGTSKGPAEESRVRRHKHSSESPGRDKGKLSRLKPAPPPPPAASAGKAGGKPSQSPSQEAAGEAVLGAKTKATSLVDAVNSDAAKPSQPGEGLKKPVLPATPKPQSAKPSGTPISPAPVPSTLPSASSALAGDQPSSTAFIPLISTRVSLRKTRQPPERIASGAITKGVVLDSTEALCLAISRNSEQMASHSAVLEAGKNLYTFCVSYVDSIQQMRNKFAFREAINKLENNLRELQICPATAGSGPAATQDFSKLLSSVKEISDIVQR

PIK3CA(H1047Y) = PIK3CA(H1047Y) (Homo sapiens (Human), UniProt P42336, H1047Y); test: KINOMEscan scanMAX; type: binding; conditions: 2000 nM; read-out: Percent Control
[1] = test system: 4T1 murine triple-negative breast cancer; test: 4T1 breast cancer metastasis survival model; type: in vivo; conditions: 40 mg/kg, oral, b.i.d., female Balb/c mice after primary tumor removal
Method: 4T1 is a murine triple-negative breast cancer (TNBC) cell line, which is highly metastatic to the lungs. 4T1 cells were injected orthotopically in the mammary fat pad of female Balb/c mice and the primary tumors were surgically removed when tumor sizes reach 500-600 mm^3. Mice were then separated into two groups (FIG. 12A, n=8), which were then treated with vehicle (5% dextrose) or Senexin C (40 mg/kg, oral, b.i.d.).

FLT3-autoinhibited = FLT3-autoinhibited (Homo sapiens (Human), UniProt P36888); test: KINOMEscan scanMAX; type: binding; conditions: 2000 nM; read-out: Percent Control
Chain of FLT3-autoinhibited (P36888 564-993 limits assumed): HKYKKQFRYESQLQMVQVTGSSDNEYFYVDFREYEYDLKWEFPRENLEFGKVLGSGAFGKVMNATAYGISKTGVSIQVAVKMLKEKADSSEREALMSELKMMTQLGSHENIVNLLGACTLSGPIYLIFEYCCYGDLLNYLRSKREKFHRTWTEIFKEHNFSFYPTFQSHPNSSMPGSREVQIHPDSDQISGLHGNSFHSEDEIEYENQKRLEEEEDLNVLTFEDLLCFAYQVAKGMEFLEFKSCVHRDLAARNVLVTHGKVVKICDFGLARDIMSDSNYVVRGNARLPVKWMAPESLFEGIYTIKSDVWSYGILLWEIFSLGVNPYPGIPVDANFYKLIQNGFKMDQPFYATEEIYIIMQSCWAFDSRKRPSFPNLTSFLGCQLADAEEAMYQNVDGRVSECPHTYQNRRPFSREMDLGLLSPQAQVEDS

CSNK1E = CSNK1E (Homo sapiens (Human), UniProt P49674); test: KINOMEscan scanMAX; type: binding; conditions: 2000 nM; read-out: Percent Control
Chain of CSNK1E (P49674 whole entry): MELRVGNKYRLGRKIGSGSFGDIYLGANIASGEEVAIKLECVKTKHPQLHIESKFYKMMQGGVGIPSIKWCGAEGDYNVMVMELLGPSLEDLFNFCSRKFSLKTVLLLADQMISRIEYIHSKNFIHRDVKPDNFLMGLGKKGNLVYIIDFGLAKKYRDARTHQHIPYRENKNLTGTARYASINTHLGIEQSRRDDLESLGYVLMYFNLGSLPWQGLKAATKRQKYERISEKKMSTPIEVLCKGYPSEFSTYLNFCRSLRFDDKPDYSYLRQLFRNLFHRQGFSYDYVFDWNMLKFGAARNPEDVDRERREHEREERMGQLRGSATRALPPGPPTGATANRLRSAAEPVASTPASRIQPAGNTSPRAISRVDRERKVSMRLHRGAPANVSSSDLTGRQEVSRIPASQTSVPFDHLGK

DAPK2 = DAPK2 (Homo sapiens (Human), UniProt Q9UIK4); test: KINOMEscan scanMAX; type: binding; conditions: 2000 nM; read-out: Percent Control
Chain of DAPK2 (Q9UIK4 whole entry): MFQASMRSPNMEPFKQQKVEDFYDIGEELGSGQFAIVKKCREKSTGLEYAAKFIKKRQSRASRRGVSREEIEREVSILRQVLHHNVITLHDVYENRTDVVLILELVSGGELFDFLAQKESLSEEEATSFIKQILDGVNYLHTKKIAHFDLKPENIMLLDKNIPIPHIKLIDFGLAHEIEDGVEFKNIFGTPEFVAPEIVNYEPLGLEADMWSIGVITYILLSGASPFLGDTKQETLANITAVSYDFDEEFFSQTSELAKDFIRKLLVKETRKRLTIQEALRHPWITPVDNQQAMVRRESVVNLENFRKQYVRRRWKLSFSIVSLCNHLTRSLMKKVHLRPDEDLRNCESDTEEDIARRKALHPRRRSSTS

EGFR(L747-T751del, Sins) = EGFR(L747-T751del, Sins) (Homo sapiens (Human), UniProt P00533, DEL747-751/INS746S); test: KINOMEscan scanMAX; type: binding; conditions: 2000 nM; read-out: Percent Control

Chain of IGF1R (P08069 31-1367): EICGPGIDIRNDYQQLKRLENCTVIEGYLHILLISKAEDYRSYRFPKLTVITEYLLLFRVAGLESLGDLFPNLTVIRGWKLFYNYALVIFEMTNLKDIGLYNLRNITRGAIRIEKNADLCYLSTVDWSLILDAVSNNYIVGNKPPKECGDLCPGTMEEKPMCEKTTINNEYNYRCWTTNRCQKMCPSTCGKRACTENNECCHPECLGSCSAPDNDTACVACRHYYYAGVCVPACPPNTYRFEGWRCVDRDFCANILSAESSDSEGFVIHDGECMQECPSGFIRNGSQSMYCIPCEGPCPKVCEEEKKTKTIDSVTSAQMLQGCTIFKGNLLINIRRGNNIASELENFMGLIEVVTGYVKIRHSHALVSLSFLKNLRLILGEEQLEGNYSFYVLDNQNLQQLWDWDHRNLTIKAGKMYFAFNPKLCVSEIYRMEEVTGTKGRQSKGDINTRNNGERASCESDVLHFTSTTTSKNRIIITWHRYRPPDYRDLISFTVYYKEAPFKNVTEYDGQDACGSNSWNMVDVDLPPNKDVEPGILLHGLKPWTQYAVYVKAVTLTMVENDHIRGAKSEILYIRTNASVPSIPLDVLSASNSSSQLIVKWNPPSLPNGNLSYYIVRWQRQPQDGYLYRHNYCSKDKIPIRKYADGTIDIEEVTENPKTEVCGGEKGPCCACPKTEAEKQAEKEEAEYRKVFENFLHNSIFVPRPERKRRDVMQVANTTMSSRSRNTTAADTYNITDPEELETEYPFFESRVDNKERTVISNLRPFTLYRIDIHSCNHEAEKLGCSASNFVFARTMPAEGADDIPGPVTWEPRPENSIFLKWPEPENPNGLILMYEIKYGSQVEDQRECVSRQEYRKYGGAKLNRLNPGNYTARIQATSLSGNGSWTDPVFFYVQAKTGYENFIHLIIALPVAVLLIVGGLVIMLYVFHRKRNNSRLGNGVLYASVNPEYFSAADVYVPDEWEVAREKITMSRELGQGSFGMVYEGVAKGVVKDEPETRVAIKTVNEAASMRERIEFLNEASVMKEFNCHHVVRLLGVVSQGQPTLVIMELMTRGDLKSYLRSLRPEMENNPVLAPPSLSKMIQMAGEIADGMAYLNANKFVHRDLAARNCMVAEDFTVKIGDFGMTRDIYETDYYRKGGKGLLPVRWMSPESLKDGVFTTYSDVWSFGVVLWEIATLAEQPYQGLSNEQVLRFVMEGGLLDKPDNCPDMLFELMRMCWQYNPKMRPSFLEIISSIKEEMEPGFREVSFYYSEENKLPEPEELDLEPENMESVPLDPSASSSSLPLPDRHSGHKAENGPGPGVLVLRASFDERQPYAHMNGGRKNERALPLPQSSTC
Chain of BRK (PTK6) (Q13882 whole entry): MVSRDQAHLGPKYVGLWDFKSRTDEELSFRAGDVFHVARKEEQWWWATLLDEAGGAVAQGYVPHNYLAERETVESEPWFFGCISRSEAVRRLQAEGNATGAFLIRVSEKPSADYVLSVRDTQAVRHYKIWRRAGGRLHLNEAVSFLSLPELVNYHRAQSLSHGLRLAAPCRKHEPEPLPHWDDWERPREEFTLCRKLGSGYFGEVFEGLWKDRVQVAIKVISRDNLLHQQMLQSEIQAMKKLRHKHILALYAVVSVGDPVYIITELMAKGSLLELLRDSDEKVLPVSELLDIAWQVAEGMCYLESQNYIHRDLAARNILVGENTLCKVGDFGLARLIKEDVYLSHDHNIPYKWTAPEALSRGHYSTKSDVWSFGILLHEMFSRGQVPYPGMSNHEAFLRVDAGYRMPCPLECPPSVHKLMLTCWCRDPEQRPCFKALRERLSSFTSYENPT

Question: `CN1CCN(C(=O)c2ccc3cc(CCNc4ccnc5ccc(C#N)cc45)ccc3c2)CC1` [compound 6148, 4-((2-(6-(4-methylpiperazine-1-carbonyl)naphthalen-2-yl)ethyl)amino)quinoline-6-carbonitrile] was tested. Which remaining binding at 2 µM (BRK (PTK6)) did it give?
Answer: The remaining binding at 2 µM was 97%.

Question: What about the remaining binding at 2 µM (IGF1R) of the same molecule?
Answer: The remaining binding at 2 µM was 94%.

Question: What about the remaining binding at 2 µM (PIK4CB (PI4KB)) of the same molecule?
Answer: Its remaining binding at 2 µM is 51%.

Question: What about the remaining binding at 2 µM (DDR2) of the same molecule?
Answer: The remaining binding at 2 µM was 64%.

Question: And the remaining binding at 2 µM (ABL1-phosphorylated)?
Answer: The remaining binding at 2 µM was 67%.

Question: What about the remaining binding at 2 µM (PIK3CA(H1047Y)) of the same molecule?
Answer: The remaining binding at 2 µM was 91%.

Question: And the “Mouse survival of the metastatic disease” value [1]?
Answer: Its value is “significantly increased”.

Question: And the remaining binding at 2 µM (FLT3-autoinhibited)?
Answer: The remaining binding at 2 µM was 88%.

Question: And the remaining binding at 2 µM (CSNK1E)?
Answer: The remaining binding at 2 µM was 81%.

Question: What about the remaining binding at 2 µM (DAPK2) of the same molecule?
Answer: The remaining binding at 2 µM was 100%.

Question: And the remaining binding at 2 µM (EGFR(L747-T751del, Sins))?
Answer: The remaining binding at 2 µM was 74%.
